The values below come from patent US20080206203A1, “Method for Inhibiting Tumor Metastasis” (Inflammation Research Center Company Ltd., priority 2004, published 2008).

For series [1] the following is noted: in vivo; cited from earlier work.
Series [2] has as its system permeability of blood brain barrier and infiltration of white blood cells to cerebrospinal fluid caused by arachidonic acid. As to the kind of experiment: arachidonic acid-induced central nervous system inflammation (CSF volume and WBC counts via subarachnoid cannula). It counts as in vivo, rat. The source says: To investigate the role of leukotriene antagonists in the treatment of inflammation, a sensitive and quantitative method to measure inflammation for the central nervous system was developed. Important changes in the inflammatory process can be monitored, as both the permeability of blood brain barrier (BBB) and the infiltration of white blood cells (WBC) to cerebrospinal fluid (CSF) caused by arachidonic acid can be measured over time from the same experimental animal. In particular, the effect of the leukotriene C4 and D4 antagonist, pranlukast, was studied using this method. Changes in the inflammatory process of both the permeability of BBB and the infiltration of white blood cells (WBC) caused by administering arachidonic acid as a nociceptive stimulus were observed.
Male rats, approximately 350-400 g, were anesthetized with sodium pentobarbital at a dose of 50 mg/kg intraperitoneally (i.p.). Animals were then placed in a stereotaxic unit. Fur from the top of the head to neck was shaved. The study area was disinfected with 70% ethanol followed by a 10% providone-iodine solution. Skin and muscle over the cervical cord were dissected until cervical vertebrae were exposed. A hole was made using a 23 G3/4 needle passing through the dura via the cisterna magna. One end of a 2-3 mm PE10 cannula (0.011 “I.D., 0.007” thick, 0.024″ O.D., 6.5 cm long) was inserted into the subarachnoid space at the cervical cord so as to avoid damage to neuronal tissue (FIG. 3). The cannula was fixed with cyanoacrylic glue to the peripheral tissue. The other end of PE10 was used for administration of a nociceptive stimulus, such as arachidonic acid (AA; 3.25 μg/2 μl) and subsequently for collecting cerebrospinal fluid (CSF) every thirty minutes thereafter during the 11-hour experimental period. The cannula filled with CSF immediately after the cannulation.
Air was infused to inject AA to the subarachnoid space. The muscles and skin were closed with surgical staples. The rat was then removed from the stereotaxic unit and placed on a heat pad and continuously monitored.
In the interaction study, the leukotriene C4 and D4 antagonist, pranlukast, was administered (490 mg/kg, i.p.) thirty minutes before administration of arachidonic acid (AA). If the effects of the anesthesia appeared to be wearing off, an additional 0.05-0.1 ml pentobarbital (50 mg/ml, i.p.) dose was administered. If at any time during the experiment, the animal appeared to be in pain or distress, the study was immediately stopped and the animal was euthanized.
In the present study, the volume (μl) of cerebrospinal fluid (CSF) and white blood cell (WBC) counts in CSF was measured every thirty minutes for 11 hours from the same rat. One side of the cannula (PE10) was inserted into the subarachnoid space under pentobarbital anesthesia, avoiding neuronal damage (FIG. 3). If the brain tissue is damaged, the volume of CSF and WBC increases immediately without the administration of arachidonic acid. Since there are no WBC in the CSF in the normal rat, only rats that had no WBC in the CSF immediately after the cannulation were used. Another side of the cannula remained open and was used for the administration of nociceptive stimuli (arachidonic acid, LPS, dextran, etc.) and subsequently for collecting the CSF every thirty minutes during the experiment. The CSF volume was measured using a micropipette and WBC in the CSF were counted by means of a hemacytometer.

The conditions of series [3]: 20 mg/kg p.o., cited from earlier work.
The test system of series [4] is mice. The settings on record: cited from earlier work.
Series [5] has as its system infiltration of WBC into the CSF caused by interleukin-6. As to the kind of experiment: interleukin-6-induced infiltration of WBC into the CSF in the intact dog. It counts as in vivo. The conditions noted are these: pretreatment, three different doses. The text has this: Additionally, increased infiltration of WBC into the CSF caused by interleukin-6 were inhibited by pretreatment of pranlukast (administered at three different doses) in the intact dog.

The structures appear in SMILES notation. Like-named read-outs stand apart in the source and are kept apart here.

On to `O=C(Nc1cccc2c(=O)cc(-c3nnn[nH]3)oc12)c1ccc(OCCCCc2ccccc2)cc1` [pranlukast], for which, in series [1], the “passage of the blood-brain barrier” value is given as “does not pass, or passes the blood-brain barrier at most at a very minimal level”. Moreover, in series [2] (450 mg/kg i.p., arachidonic acid 3.25 μg/2 μl), the “inhibition of inflammation caused by arachidonic acid” value is “completely inhibits”. Moreover, the “inhibition of the increase of CSF volume” value in series [2] (490 mg/kg i.p. thirty minutes before arachidonic acid (3.25 μg/2 μl) into the subarachnoid space, rat) was “completely inhibited”. Also, the “inhibition of the permeability of the brain capillary marked by WBC infiltration” value in series [2] (490 mg/kg i.p. thirty minutes before arachidonic acid, rat) is reported as “completely inhibited”. Further, the “pranlukast in blood 24 hours after administration” value in series [3] (24 hours) is listed as “no pranlukast was observed”. In series [3], the “time at which maximum blood concentration was attained” value is recorded as “within one hour”. Further, in series [3], the “time the maximum blood concentration was maintained” value is recorded as “at least 5 hours”. In addition, the LD50 in series [4] (p.o.) and in series [4] (s.c.) was greater than 2000 mg/kg each time. Also, in series [5], the “increased infiltration of WBC into the CSF caused by interleukin-6” value is listed as “inhibited”.
